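Protocol summary: plate cells (96-well), add compound at 5 concentrations, incubate 48 h, interpolate endpoints linearly. Abbreviation: GI50, concentration required for 50% inhibition of growth. TGI: total growth inhibition.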
Tests used:
Test in all cases: NCI anticancer screen, dose series, 48 h
[1] = test system: HOP-92 NSCLC
[2] = test system: CAKI-1 renal
[3] = test system: OVCAR-3 ovarian
[4] = test system: SK-MEL-28 melanoma
[5] = test system: OVCAR-8 ovarian
[6] = test system: HCC-2998 colon
[7] = test system: HL-60(TB) leukemia
[8] = test system: SF-539 CNS
[9] = test system: PC-3 prostate
[10] = test system: HS 578T breast

Compound | TGI [1] [µM] | TGI [2] [µM] | TGI [3] [µM] | TGI [4] [µM] | TGI [5] [µM] | TGI [6] [µM] | TGI [7] [µM] | TGI [8] [µM] | GI50 [1] [µM] | GI50 [2] [µM] | GI50 [9] [µM] | TGI [9] [µM] | GI50 [3] [µM] | GI50 [4] [µM] | GI50 [6] [µM] | GI50 [10] [µM] | TGI [10] [µM] | GI50 [7] [µM] | GI50 [8] [µM] | GI50 [5] [µM]
Cn1sc2ccccc2c1=S | 36.1 | 16.9 | 10.5 | 22 | 22.3 | 45.9 | 27.2 | 16.4 | – | – | – | – | – | – | – | – | – | – | – | –
COC(=O)[C@@]12C=CC(=O)[C@H]3C[C@@H](C(C(C)C)C1)[C@]32OC (stereo partly drawn) | > 100 | > 100 | > 100 | > 100 | > 100 | > 100 | > 100 | > 100 | – | – | – | – | – | – | – | – | – | – | – | –
Cc1ccc(N2C(=O)C(Cl)=C(Cl)C2=O)cc1 | 32.4 | 31.4 | 30.5 | 31.5 | – | > 100 | – | 64.2 | – | – | – | – | – | – | – | – | – | – | – | –
CCCCCCCCCCCCC(CCCCCCCCCCCC)OP(=O)(O)O | > 100 | > 100 | > 100 | > 100 | > 100 | > 100 | > 100 | > 100 | – | – | – | – | – | – | – | – | – | – | – | –
Cc1c(-c2nnc(-c3cc(Cl)c(Cl)cc3Cl)o2)nnn1-c1ccnc2c(C(F)(F)F)cccc12 | 32.2 | 94.8 | 82.7 | 75.3 | – | 91.9 | > 100 | 34.4 | 14.4 | 31.4 | 15.9 | 37.4 | 27.5 | 26.5 | 29.1 | 25.6 | 65.6 | 40.9 | 18.5 | –
COc1ccc(C(c2cc3c(cc2O)OCO3)N2CCOCC2)cc1OC (stereo not drawn) | 32.8 | 25.4 | 20.5 | 32.9 | 27.2 | – | 79.8 | 28.3 | – | – | – | 25.7 | – | – | – | – | 19.9 | – | – | –
Cc1ccc(NC(=O)c2cc3ccccc3cc2O)c(C)c1.Cc1ccc(NC(=O)c2cc3ccccc3cc2[O-])c(C)c1.[Ni+2] | – | 13.1 | 20.6 | 88.1 | – | 6.74 | – | 53.2 | – | 3.08 | – | 5.38 | 4.23 | 6.42 | 2.63 | 2.98 | 9.38 | – | 4.75 | –
Nc1ccccc1C#Cc1ccccc1C#Cc1cnccn1 | – | 29.2 | 25.8 | 32 | > 100 | – | > 100 | 31.6 | – | 14.3 | 12.7 | 27.5 | 9.79 | 17.5 | – | – | – | 21.5 | 17.1 | 48
CCOC(=O)NC1CC2CCC1(OC)C=C2C (stereo not drawn) | > 100 | > 100 | > 100 | > 100 | > 100 | > 100 | > 100 | > 100 | – | – | – | – | – | – | – | – | – | – | – | –
CC(=O)[O][Bi]([c]1ccccc1)[c]1ccccc1 | 4.28 | 26.2 | 34.3 | – | 31 | – | 23.5 | 24.3 | 1.33 | 11.1 | 16.1 | 30.7 | 11.8 | – | – | 24.9 | 71.9 | 3.54 | 11.1 | 16.4
